Data: US12091398B2, “PD-L1 antagonist compound” (ADLAI NORTYE BIOPHARMA CO., LTD., priority 2019, dated 2024)

System: PD-1/PD-L1 interaction
Experiment: Cell based PD-1/PD-L1 NFAT reporter assay
Parameters: species or system human
Details: Homo sapiens, 6 h, PD-1/NFAT-Reporter-Jurkat cells co-cultured with TCR activator/PD-L1-CHO cells; 6 hour incubation; luciferase; calibrated to Atezolizumab 10 nM; read-out: Absolute EC50
Protocol: Cell Based PD-1/PD-L1 NFAT Reporter Assay
Compounds of the present patent were tested in a cell based PD-1/PD-L1 NFAT reporter assay.
The cell-based luciferase reporter assay is used for monitoring the PD-1/PD-L1 inhibitor by characterizing the biological activity of PD-1: PD-L1 interactions in cellular context. PD-1/NFAT-Reporter-Jurkat cells stably over-expressing human PD-1 with NFAT reporter are used as effector cells. TCR activator/PD-L1—CHO cells over-expressing PD-L1 and an engineered T cell receptor (TCR) activator are used as target cells. When these two cells are co-cultivated, TCR complexes on effector cells are activated by TCR activator on target cells, resulting in expression of the NFAT luciferase reporter. However, PD1 and PD-L1 (or PD-L2) ligation prevents TCR activation and suppresses the NFAT-responsive luciferase activity. This inhibition can be specifically reversed by anti-PD1 or anti-PD-L1 inhibitors. PD1/PD-L1 inhibitors block PD1:PD-L1 interaction and promote TCR activation, resulting in reactivation of the NFAT responsive luciferase reporter.
PD-1/NFAT—Reporter—Jurkat cell (Cat: 60535) and TCR activator/PD-L1—CHO cell (Cat: 60536) were purchased from BPS Bioscience. Anti-human PD-L1 antibody (Atezolizumab, Cat: A2004) was purchased from Selleck; luciferase reporter gene expression detection kit (ONE-Glo™ Luciferase Assay System, Cat: E6120) was purchased from Promega; multifunction plate reader (SpectraMax i3x) was purchased from Molecular Devices.
PD-1/NFAT—Reporter—Jurkat cells and TCR activator/PD-L1—CHO cells were cultured in recommended media respectively.
Harvest TCR activator/PD-L1-CHO cells from culture and seed cells at a density of 35,000 cells per well into 96-well microplate in 100 µl of growth medium. Incubate cells at 37° C. in a CO2 incubator overnight. Next day, discard the culture media, add diluted compound in assay medium for 30 min. Anti-PD-L1 antibody (Atezolizumab, final concentration 10 nM) and 0.1% DMSO were the positive and negative control, respectively. Harvest the PD-1/NFAT-reporter-Jurkat cells by centrifugation and add to the wells. After 6 hour incubation, perform luciferase assay using the ONE-Glo™ Luciferase Assay System, following the manufacturer's assay protocol.
Anti-PD-L1 antibody (Atezolizumnab, 10 nM) was used as positive control to calibrate the inhibition rate using the following equation: % inhibition=(Sample luminescence/Average vehicle group luminescence−1)/(Average PD-L1 group luminescence/Average vehicle group luminescence−1)×100%.

Row | SMILES | EC50 [nM]
1 | O=C1CC(COc2cc(OCc3cccc(-c4cccc5c4cnn5CCCCN4CC[C@@H](O)C4)c3Br)c(Cl)cc2CN[C@@H](CO)C(=O)O)CN1 (some centres unmarked) [Compound 48] | 997
2 | O=C(O)[C@H](CO)NCc1cc(Cl)c(OCc2cccc(-c3cccc4c3cnn4CCCCN3CC[C@@H](O)C3)c2Br)cc1OCC(=O)N1CC[C@@H](O)C1 [Compound 49, (4-((2-bromo-3-(1-(4-((R)-3-hydroxypyrrolidin-1-yl)butyl)-1H-indazol-4-yl)benzyl)oxy)-5-chloro-2-(2-((R)-3-hydroxypyrrolidin-1-yl)-2-oxoethoxy)benzyl)-L-serine] | > 10000
3 | CCNC(=O)COc1cc(OCc2cccc(-c3cccc4c3cnn4CCCCN3CC[C@@H](O)C3)c2Br)c(Cl)cc1CN[C@@H](CO)C(=O)O [Compound 50] | 2820
4 | NC(=O)CNC(=O)COc1cc(OCc2cccc(-c3cccc4c3cnn4CCCCN3CC[C@@H](O)C3)c2Br)c(Cl)cc1CN[C@@H](CO)C(=O)O [Compound 51] | 3080
5 | CN(C)CCNC(=O)COc1cc(OCc2cccc(-c3cccc4c3cnn4CCCCN3CC[C@@H](O)C3)c2Br)c(Cl)cc1CN[C@@H](CO)C(=O)O [Compound 52] | > 10000
6 | COCCNC(=O)COc1cc(OCc2cccc(-c3cccc4c3cnn4CCCCN3CC[C@@H](O)C3)c2Br)c(Cl)cc1CN[C@@H](CO)C(=O)O [Compound 53] | > 10000
7 | N#Cc1cncc(COc2cc(Cn3ncc4c(-c5cccc(OCCCN6CC[C@@H](O)C6)c5Br)cccc43)c(Cl)cc2CN[C@@H](CO)C(=O)O)c1 [Compound 55, (4-((4-(2-bromo-3-(3-((R)-3-hydroxypyrrolidin-1-yl)propoxy)phenyl)-1H-indazol-1-yl)methyl)-5-chloro-2-((5-cyanopyridin-3-yl)methoxy)benzyl)-L-serine] | 1150
8 | N#Cc1cncc(COc2cc(OCc3cccc(-c4cccc5c4cnn5Cc4ccc(CN[C@@H](CO)C(=O)O)cc4)c3Br)c(Cl)cc2CN[C@@H](CO)C(=O)O)c1 [Compound 58, (4-((4-(2-bromo-3-((4-((((S)-1-carboxy-2-hydroxyethyl)amino)methyl)-2-chloro-5-((5-cyanopyridin-3-yl)methoxy)phenoxy)methyl)phenyl)-1H-indazol-1-yl)methyl)benzyl)-L-serine] | 1710
9 | CC(CO)(CO)NCc1cc(Cl)c(Cn2ncc3c(-c4cccc5c4cnn5CCCN4CC[C@@H](O)C4)cccc32)cc1OCc1cncc(C#N)c1 [Compound 60, (R)-5-((4-chloro-2-(((1,3-dihydroxy-2-methylpropan-2-yl)amino)methyl)-5-((1′-(3-(3-hydroxypyrrolidin-1-yl)propyl)-1H,1′H-[4,4′-biindazol]-1-yl)methyl)phenoxy)methyl)nicotinonitrile] | 1850
10 | Cc1c(COc2cc(OCc3cncc(C#N)c3)c(CN[C@@H](CO)C(=O)OC(C)C)cc2Cl)cccc1-c1cccc2c1cnn2Cc1cc(OCc2cncc(C#N)c2)c(CN[C@@H](CO)C(=O)O)cc1Cl [Compound 64, (5-chloro-4-((4-(3-((2-chloro-5-((5-cyanopyridin-3-yl)methoxy)-4-((((S)-3-hydroxy-1-isopropoxy-1-oxopropan-2-yl)amino)methyl)phenoxy)methyl)-2-methylphenyl)-1H-indazol-1-yl)methyl)-2-((5-cyanopyridin-3-yl)methoxy)benzyl)-L-serine] | 550
11 | Cc1c(COc2cc(OCc3cncc(C#N)c3)c(CN[C@@H](CO)C(=O)O)cc2Cl)cccc1-c1cccc2c1cnn2Cc1cc(OCc2cncc(C#N)c2)c(CN[C@@H](CO)C(=O)OC(C)C)cc1Cl [Compound 65, (5-chloro-4-((3-(1-(2-chloro-5-((5-cyanopyridin-3-yl)methoxy)-4-((((S)-3-hydroxy-1-isopropoxy-1-oxopropan-2-yl)amino)methyl)benzyl)-1H-indazol-4-yl)-2-methylbenzyl)oxy)-2-((5-cyanopyridin-3-yl)methoxy)benzyl)-L-serine] | 418
12 | COc1cc(OCc2cccc(-c3cccc4c3cnn4Cc3cc(OCc4cncc(C#N)c4)c(CNCCO)cc3Cl)c2C)c(Cl)cc1CNCCO [Compound 68, 5-((4-chloro-5-((4-(3-((2-chloro-4-(((2-hydroxyethyl)amino)methyl)-5-methoxyphenoxy)methyl)-2-methylphenyl)-1H-indazol-1-yl)methyl)-2-(((2-hydroxyethyl)amino)methyl)phenoxy)methyl)nicotinonitrile] | 348

More lines, now with the values ahead:

Row | EC50 [nM] | SMILES
13 | 339 | Cc1c(OCCCN2CC[C@@H](O)C2)cccc1-c1cccc2c1cnn2Cc1cc(OCc2cncc(C#N)c2)c(CN[C@@H](CO)C(=O)O)cc1Cl [Compound 54, (5-chloro-2-((5-cyanopyridin-3-yl)methoxy)-4-((4-(3-(3-((R)-3-hydroxypyrrolidin-1-yl)propoxy)-2-methylphenyl)-1H-indazol-1-yl)methyl)benzyl)-L-serine]
14 | 163 | COc1cc(OCc2cccc(-c3cccc4c3cnn4Cc3cc(OCc4cncc(C#N)c4)c(CN[C@@H](CO)C(=O)O)cc3Cl)c2C)c(Cl)cc1CN[C@@H](CO)C(=O)O [Compound 56, (4-((3-(1-(4-((((S)-1-carboxy-2-hydroxyethyl)amino)methyl)-2-chloro-5-((5-cyanopyridin-3-yl)methoxy)benzyl)-1H-indazol-4-yl)-2-methylbenzyl)oxy)-5-chloro-2-methoxybenzyl)-L-serine]
15 | 53 | Cc1c(COc2cc(OCc3cncc(C#N)c3)c(CN[C@@H](CO)C(=O)O)cc2Cl)cccc1-c1cccc2c1cnn2Cc1cc(OCc2cncc(C#N)c2)c(CN[C@@H](CO)C(=O)O)cc1Cl [Compound 57, (4-((3-(1-(4-((((S)-1-carboxy-2-hydroxyethyl)amino)methyl)-2-chloro-5-((5-cyanopyridin-3-yl)methoxy)benzyl)-1H-indazol-4-yl)-2-methylbenzyl)oxy)-5-chloro-2-((5-cyanopyridin-3-yl)methoxy)benzyl)-L-serine]
16 | 220 | N#Cc1cncc(COc2cc(OCc3cccc(-c4cccc5c4cnn5Cc4ccc(CN[C@@H](CO)C(=O)O)cc4Cl)c3Br)c(Cl)cc2CN[C@@H](CO)C(=O)O)c1 [Compound 59, (4-((4-(2-bromo-3-((4-((((S)-1-carboxy-2-hydroxyethyl)amino)methyl)-2-chloro-5-((5-cyanopyridin-3-yl)methoxy)phenoxy)methyl)phenyl)-1H-indazol-1-yl)methyl)-3-chlorobenzyl)-L-serine]
17 | 124 | N#Cc1cncc(COc2cc(Cn3ncc4c(-c5cccc6c5cnn6Cc5cc(OCc6cncc(C#N)c6)c(CN[C@@H](CO)C(=O)O)cc5Cl)cccc43)c(Cl)cc2CN[C@@H](CO)C(=O)O)c1 [Compound 61, (2S,2'S)-2,2′-((((1H,1′H-[4,4′-biindazole]-1,1′-diylbis(methylene))bis(5-chloro-2-((5-cyanopyridin-3-yl)methoxy)-4,1-phenylene))bis(methylene))bis(azanediyl))bis(3-hydroxypropanoic acid)]
18 | 307 | COc1cc(Cn2ncc3c(-c4cccc(COc5cc(OC)c(CN[C@@H](CO)C(=O)O)cc5Cl)c4C)cccc32)c(Cl)cc1CN[C@@H](CO)C(=O)O [Compound 66, (4-((3-(1-(4-((((S)-1-carboxy-2-hydroxyethyl)amino)methyl)-2-chloro-5-methoxybenzyl)-1H-indazol-4-yl)-2-methylbenzyl)oxy)-5-chloro-2-methoxybenzyl)-L-serine]
19 | 89 | COc1cc(Cn2ncc3c(-c4cccc(COc5cc(OCc6cncc(C#N)c6)c(CN[C@@H](CO)C(=O)O)cc5Cl)c4C)cccc32)c(Cl)cc1CN[C@@H](CO)C(=O)O [Compound 67, (4-((4-(3-((4-((((S)-1-carboxy-2-hydroxyethyl)amino)methyl)-2-chloro-5-((5-cyanopyridin-3-yl)methoxy)phenoxy)methyl)-2-methylphenyl)-1H-indazol-1-yl)methyl)-5-chloro-2-methoxybenzyl)-L-serine]
20 | 157 | COc1cc(OCc2cccc(-c3cccc4c3cnn4Cc3cc(OCc4cncc(C#N)c4)c(CNC[C@@H]4CCC(=O)N4)cc3Cl)c2C)c(Cl)cc1CNC[C@@H]1CCC(=O)N1 [Compound 69, 5-((4-chloro-5-((4-(3-((2-chloro-5-methoxy-4-(((((S)-5-oxopyrrolidin-2-yl)methyl)amino)methyl)phenoxy)methyl)-2-methylphenyl)-1H-indazol-1-yl)methyl)-2-(((((S)-5-oxopyrrolidin-2-yl)methyl)amino)methyl)phenoxy)methyl)nicotinonitrile]
